# “And” between values parts separate entries of the source, which are not always exact repeats. Identical values can stand only once. Like-named read-outs stand apart in the source and are kept apart here. Marks after values point to notes of the source that are not given here.
# How the values were obtained:
# [1] = cited from earlier work
# [2] = Plasma pharmacokinetics by LC-MS/MS; assay type: in vivo, human; details: for Tmax: read-out: FdCyd Tmax; for Vd/F: read-out: FdCyd Vz/F; for half-life: read-out: FdCyd t½ (converted); for AUC(0-inf): read-out: FdCyd AUC0-inf; for Cmax: read-out: FdCyd Cmax; for FdCyd2h-D2: day 2; for FdCyd2h-D3: day 3
# Method: Blood specimens for PK analysis were collected on Cycle 1 Day 1 (C1D1) prior to THU administration and then at 15, 30, and 45 min and 1, 2, 3, 4, 5, and 6 h after THU administration, as well as on C1D2 and C1D3 prior to and 2 h after THU administration. Urine specimens for PK analysis were collected on C1D1 prior to treatment and then at every void from 0 to 24 h after THU administration. All specimens for PK analysis were processed and analyzed by LC-MS/MS as described previously, and Phoenix WinNonlin software was used for data analysis.
# [3] = All FdCyd doses + THU 3000 mg oral (n=44), geom. mean (geom. SD)
# [4] = All FdCyd doses + THU 6000 mg oral (n=11), geom. mean (geom. SD)
# [5] = DL1: FdCyd 30 mg + THU 3000 mg oral (n=3), geom. mean (geom. SD)
# [6] = DL2: FdCyd 60 mg + THU 3000 mg oral (n=4), geom. mean (geom. SD)
# [7] = DL3: FdCyd 90 mg + THU 3000 mg oral (n=3), geom. mean (geom. SD)
# [8] = DL4: FdCyd 120 mg + THU 3000 mg oral (n=3), geom. mean (geom. SD)
# [9] = DL5-9: FdCyd 160 mg + THU 3000 mg oral (n=31), geom. mean (geom. SD)
# [10] = DL10: FdCyd 60 mg + THU 6000 mg oral (n=8), geom. mean (geom. SD)
# [11] = DL11: FdCyd 80 mg + THU 6000 mg oral (n=3), geom. mean (geom. SD)
# [12] = Total, all dose levels (n=55), geom. mean (geom. SD)
# [13] = human, plasma, oral, Total, all dose levels (n=55), geom. mean (geom. SD)
# [14] = human, plasma, po, All FdCyd doses + THU 3000 mg oral (n=44), geom. mean (geom. SD)
# [15] = human, plasma, po, All FdCyd doses + THU 6000 mg oral (n=11), geom. mean (geom. SD)
# [16] = human, plasma, po, DL1: FdCyd 30 mg + THU 3000 mg oral (n=3), geom. mean (geom. SD)
# [17] = human, plasma, po, DL2: FdCyd 60 mg + THU 3000 mg oral (n=4), geom. mean (geom. SD)
# [18] = human, plasma, po, DL3: FdCyd 90 mg + THU 3000 mg oral (n=3), geom. mean (geom. SD)
# [19] = human, plasma, po, DL4: FdCyd 120 mg + THU 3000 mg oral (n=3), geom. mean (geom. SD)
# [20] = human, plasma, po, DL5-9: FdCyd 160 mg + THU 3000 mg oral (n=31), geom. mean (geom. SD)
# [21] = human, plasma, po, DL10: FdCyd 60 mg + THU 6000 mg oral (n=8), geom. mean (geom. SD)
# [22] = human, plasma, po, DL11: FdCyd 80 mg + THU 6000 mg oral (n=3), geom. mean (geom. SD)
# [23] = plasma FdCyd at 2 h, DL1: FdCyd 30 mg + THU 3000 mg oral (n=3), geom. mean (geom. SD)
# [24] = plasma FdCyd at 2 h, DL2: FdCyd 60 mg + THU 3000 mg oral (n=4), geom. mean (geom. SD)
# [25] = plasma FdCyd at 2 h, DL3: FdCyd 90 mg + THU 3000 mg oral (n=3), geom. mean (geom. SD)
# [26] = plasma FdCyd at 2 h, DL4: FdCyd 120 mg + THU 3000 mg oral (n=3), geom. mean (geom. SD)
# [27] = plasma FdCyd at 2 h, DL5-9: FdCyd 160 mg + THU 3000 mg oral (n=31), geom. mean (geom. SD)
# [28] = plasma FdCyd at 2 h, DL10: FdCyd 60 mg + THU 6000 mg oral (n=8), geom. mean (geom. SD)
# [29] = plasma FdCyd at 2 h, DL11: FdCyd 80 mg + THU 6000 mg oral (n=3), geom. mean (geom. SD)
structure (smiles),measurement,setting,value
"Nc1nc(=O)n([C@H]2C[C@H](O)[C@@H](CO)O2)cc1F [FdCyd, 5-fluoro-2’-deoxycytidine]","FdCyd bioavailability, previously established",[1],10%
same,"FdCyd clearance, previous reports","[1]; intravenously administered FdCyd with THU, ref previous reports",142 mL/min/m^2
same,FdCyd Cl/F,[2]; [3],123 L/h and 123 (2.37)^c L/h
same,FdCyd Cmax/Dose,[2]; [3],4.0 (2.2)^b µg/L / mg
same,FdCyd Cl/F,[2]; [4],85.7 (1.65)^c L/h
same,FdCyd Cmax/Dose,[2]; [4],6.6 (1.6)^b µg/L / mg
same,FdCyd Cl/F,[2]; [5],212 (2.77) L/h
same,FdCyd Cmax/Dose,[2]; [5],3.0 (2.3) µg/L / mg
same,FdCyd Cl/F,[2]; [6],95.7 (3.08) L/h
same,FdCyd Cmax/Dose,[2]; [6],4.9 (3.0) µg/L / mg
same,FdCyd Cl/F,[2]; [7],84.7 (1.91) L/h
same,FdCyd Cmax/Dose,[2]; [7],5.8 (1.8) µg/L / mg
same,FdCyd AUC0-inf,[2]; [8],1.59 (2.43) mg/L•h
same,FdCyd Cl/F,[2]; [8],75.6 (2.43) L/h
same,FdCyd Cmax/Dose,[2]; [8],7.4 (2.0) µg/L / mg
same,FdCyd Cl/F,[2]; [9],133 (2.35) L/h
same,FdCyd Cmax/Dose,[2]; [9],3.6 (2.1) µg/L / mg
same,FdCyd Cl/F,[2]; [10],96.0 (1.71) L/h
same,FdCyd Cmax/Dose,[2]; [10],6.4 (1.6) µg/L / mg
same,FdCyd Cl/F,[2]; [11],65.8 (1.41) L/h
same,FdCyd Cmax/Dose,[2]; [11],7.1 (1.6) µg/L / mg
same,FdCyd Cl/F,[2]; [12],115 (2.26) L/h
same,FdCyd Cmax/Dose,[2]; [12],4.4 (2.1) µg/L / mg
same,FdCyd peak concentrations at the oral RP2D (160 mg) relative to those after the IV FdCyd RP2D of 100 mg/m^2,[2]; comparison with ref 8,approximately 20%
same,Tmax,[2]; [13],~72 min
same,Vd/F,[2]; [13],98 L
same,bioavailability,"[2]; human, plasma, oral, from previous clearance (142 mL/min/m^2) vs current Cl/F (123 L/h), read-out: FdCyd bioavailability in the current study",~12%
same,Tmax,[2]; [14],78 min
same,Vd/F,[2]; [14],111 L
same,half-life,[2]; [14],36 min
same,Tmax,[2]; [15],54 min
same,Vd/F,[2]; [15],56 L
same,half-life,[2]; [15],30 min
same,AUC(0-inf),[2]; [16],140 ng·h/mL
same,Cmax,[2]; [16],90 ng/mL
same,Tmax,[2]; [16],54 min
same,Vd/F,[2]; [16],187 L
same,half-life,[2]; [16],36 min
same,AUC(0-inf),[2]; [17],630 ng·h/mL
same,Cmax,[2]; [17],290 ng/mL
same,Tmax,[2]; [17],60 min
same,Vd/F,[2]; [17],90 L
same,half-life,[2]; [17],42 min
same,AUC(0-inf),[2]; [18],1060 ng·h/mL
same,Cmax,[2]; [18],530 ng/mL
same,Tmax,[2]; [18],90 min
same,Vd/F,[2]; [18],139 L
same,half-life,[2]; [18],66 min
same,Cmax,[2]; [19],890 ng/mL
same,Tmax,[2]; [19],72 min
same,Vd/F,[2]; [19],62 L
same,half-life,[2]; [19],36 min
same,AUC(0-inf),[2]; [20],1200 ng·h/mL
same,Cmax,[2]; [20],580 ng/mL
same,Tmax,[2]; [20],84 min
same,Vd/F,[2]; [20],114 L
same,half-life,[2]; [20],36 min
same,AUC(0-inf),[2]; [21],630 ng·h/mL
same,Cmax,[2]; [21],380 ng/mL
same,Tmax,[2]; [21],48 min
same,Vd/F,[2]; [21],63 L
same,half-life,[2]; [21],30 min
same,AUC(0-inf),[2]; [22],1220 ng·h/mL
same,Cmax,[2]; [22],570 ng/mL
same,Tmax,[2]; [22],90 min
same,Vd/F,[2]; [22],44 L
same,half-life,[2]; [22],30 min
same,concentration at 2 h,"[2]; human, plasma FdCyd at 2 h, day 1, DL10: FdCyd 60 mg + THU 6000 mg oral (n=8), geom. mean (geom. SD), read-out: FdCyd2h-D1",317 ng/mL
same,Relationship between week 1 cumulative FdCyd exposure and occurrence of DLT,[2]; in vivo,no statistically significant relationship
same,FdCyd dose from which the target Cmax of 1 µM (245 ng/mL) was reached by individual patients,[2]; oral FdCyd with THU,≥ 60 mg
same,FdCyd2h-D1,"[2]; plasma FdCyd at 2 h, day 1, DL2: FdCyd 60 mg + THU 3000 mg oral (n=4), geom. mean (geom. SD)",0.203 (3.87) mg/L
same,FdCyd2h-D1,"[2]; plasma FdCyd at 2 h, day 1, DL3: FdCyd 90 mg + THU 3000 mg oral (n=3), geom. mean (geom. SD)",0.525 (1.79) mg/L
same,FdCyd2h-D1,"[2]; plasma FdCyd at 2 h, day 1, DL4: FdCyd 120 mg + THU 3000 mg oral (n=3), geom. mean (geom. SD)",0.611 (3.17) mg/L
same,FdCyd2h-D1,"[2]; plasma FdCyd at 2 h, day 1, DL5-9: FdCyd 160 mg + THU 3000 mg oral (n=31), geom. mean (geom. SD)",0.505 (1.92) mg/L
same,FdCyd2h-D1,"[2]; plasma FdCyd at 2 h, day 1, DL11: FdCyd 80 mg + THU 6000 mg oral (n=3), geom. mean (geom. SD)",0.571 (1.64) mg/L
same,FdCyd2h-D2,[2]; [23],0.076 (3.80) mg/L
same,FdCyd2h-D2,[2]; [24],0.169 (3.80) mg/L
same,FdCyd2h-D2,[2]; [25],0.449 (1.55) mg/L
same,FdCyd2h-D2,[2]; [26],0.499 (9.47) mg/L
same,FdCyd2h-D2,[2]; [27],0.595 (3.29) mg/L
same,FdCyd2h-D2,[2]; [28],0.559 (1.63) mg/L
same,FdCyd2h-D2,[2]; [29],0.931 (1.99) mg/L
same,FdCyd2h-D3,[2]; [23],0.042 (2.6) mg/L
same,FdCyd2h-D3,[2]; [24],0.145 (1.14) mg/L
same,FdCyd2h-D3,[2]; [25],0.460 (2.89) mg/L
same,FdCyd2h-D3,[2]; [26],0.891 (2.08) mg/L
same,FdCyd2h-D3,[2]; [27],0.650 (1.98) mg/L
same,FdCyd2h-D3,[2]; [28],0.584 (1.60) mg/L
same,FdCyd2h-D3,[2]; [29],0.745 (2.48) mg/L
